PubChem BioAssay AID651703 (Broad Institute, 2012)
“And” between values parts separate entries of the source, which are not always exact repeats. Equal entries are not always repeated.

Molecular target: Transforming acidic coiled-coil-containing protein 3 (Homo sapiens) (UniProt Q9Y6A5)
Experiment: ARNT/TACC3 interaction disruptors, potency, confirmation, biochemical, AlphaScreen, cherry-picked samples (AID 651703);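 note: TACC3 partner is the GST-tagged E629A mutant dimer; hits lower the signal meaning they disrupt ARNT binding to TACC3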
Details: AlphaScreen His-ARNT PAS-B / GST-TACC3 binding, luminescence; call rule not given here

AC50, active:
CCOc1cc(CNCc2ccccn2)cc(Cl)c1OCC 45 µM
O=C(NC12CC3CC(CC(C3)C1)C2)c1ccc(-c2ccccc2Cl)o1 51 µM
CC(NC(=O)c1ccco1)C(=O)Nc1nc(-c2ccccn2)cs1 (configuration not stated) 4.52 µM
c1ccc(-c2cn(C[C@H]3CC[C@@H]([C@@H]4CC[C@H](Cn5cc(-c6ccccn6)nn5)O4)O3)nn2)nc1 0.659 µM
CCN(CC)c1ccc(/C=N/NC(=O)c2ccc3nc[nH]c3c2)c(O)c1 12.5 µM
Nc1[nH]c(=O)nc(Nc2ccccc2)c1N=O 21.2 µM
Cc1ccccc1C(=O)Nc1cccc(C(=O)N/N=C/c2cc(Cl)cc([N+](=O)[O-])c2O)c1 40 µM
Cc1sc2ncnc(N/N=C/c3ccccc3O)c2c1C 10.1 µM
c1ccc(-c2csc(Nc3nc(-c4ccccn4)nnc3-c3ccccc3)n2)cc1 0.897 µM
COc1ccc(NC(=O)Nc2ccc3c(c2)CC(=O)N([C@@H](C)CO)C[C@@H](C)[C@H](CN(C)Cc2ccc(Oc4ccccc4)cc2)O3)cc1 23.2 µM
Oc1c(C(Nc2cccc(C(F)(F)F)c2)c2ccncc2)ccc2cccnc12 (configuration not stated) 0.575 µM
Cc1ccc2ccc3cccnc3c2n1 7.33 µM
CN1CCc2c(sc3c2C(=O)NC(c2ccccn2)N3)C1 (configuration not stated) 5.51 µM
O=C(Cn1cncn1)N/N=C/c1cc([N+](=O)[O-])ccc1O 4.04 µM
c1ccc(N=Nc2ccc3cccccc2-3)cc1 1.68 µM
COc1cc([N+](=O)[O-])cc(/C=N/NC(=O)Cn2cncn2)c1O 5.87 µM
COc1ccc2ccccc2c1CNCc1ccccn1 24.8 µM
COc1cc(OC)cc(C(=O)Oc2c(CN3CCOCC3)cc(Cl)c3cccnc23)c1 31.1 µM
Brc1ccc(-c2nn3c(-c4ccccn4)nnc3s2)o1 9.12 µM
O=C(O)CCNc1cc(N2CCN(C(=O)c3ccco3)CC2)c2noc3c2c1C(=O)c1ccccc1-3 14.9 µM
O=C(CN1C(=O)/C(=C\c2cccs2)SC1=S)Nc1cccc(C(=O)O)c1 26.3 µM
O=S(=O)(N[C@H]1CC[C@@H](CCn2cc(-c3ccccn3)nn2)O[C@H]1CO)c1cccc(F)c1 19.1 µM
C=CCSc1nnc(-c2cccc3ccccc23)o1 5.8 µM
O=C(COc1ccccc1)Nc1nnc(-c2ccco2)o1 36.6 µM
O=C(Nc1nc(-c2ccccn2)cs1)c1ccc(Cl)s1 3.61 µM
CC(=O)c1cccc(-c2ccc3c(=O)[nH]c(Nc4ccccc4)cc3c2)c1 23.1 µM
Oc1c(CN2CCCCC2)cc(Br)c2cccnc12 0.995 µM
O=C(NNc1ccccn1)C(=O)NNS(=O)(=O)c1ccc(Cl)cc1 15.6 µM
COc1cc(-c2nnc(NC(=O)CS(=O)(=O)c3ccc(F)cc3)o2)cc(OC)c1OC 24.3 µM
CCOC(=O)c1c(C)[nH]c(N=Nc2cccc(C)c2)c1C 17.8 µM
CC1CCCN(S(=O)(=O)c2ccc(C(=O)Nc3nnc(C4CC4)o3)cc2)C1 (configuration not stated) 31.9 µM
CCCN(CCC)c1nc(-c2ccccn2)nc2ccccc12 15.5 µM
CCC(C)Nc1nc(-c2ccccn2)nc2ccccc12 (configuration not stated) 8.57 µM
Oc1cc(-c2ccncc2)cc2cccnc12 0.771 µM
O=S(=O)(Nc1cccc2cccnc12)c1ccc(S(=O)(=O)N2CCCC2)cc1 23.3 µM
COc1ccccc1NC(=O)CSc1n[nH]c(-c2ccccn2)n1 0.821 µM
Cc1[nH]n(-c2ccccc2)c(=O)c1/C=N/NC(=O)COc1ccccc1[N+](=O)[O-] 15.8 µM
CN(C)CCCNC(=O)c1ccc(-c2cc(O)c3ncccc3c2)cc1 2.78 µM
COc1ccc(Cc2nnc(NN)[nH]c2=O)cc1OC 6.72 µM
O=C(Nc1nc(NC(=O)c2ccco2)n(-c2ccccc2)n1)c1ccccc1 12.9 µM
CCCCCc1cc(=O)oc2c(C(CCN(CC)CC)c3ccc(N(C)C)cc3)c(OC)cc(OC)c12 (configuration not stated) 5.02 µM
O=C(N/N=C/c1cc(Br)ccc1OC(=O)c1ccc(Br)cc1)c1ccncc1 4.24 µM
O=C(CSc1ccc(-c2ccccn2)nn1)c1ccccc1 3.36 µM
c1ccc(CNCCN2CCNCC2)nc1 6.79 µM
O=C(NCCCn1ccnc1)C(=O)NCC1OCCN1S(=O)(=O)c1ccc(F)cc1 (configuration not stated) 3.5 µM
O=C(CNS(=O)(=O)c1ccc([N+](=O)[O-])cc1)N/N=C/c1ccc(O)cc1O 19.2 µM
c1ccc(-c2nnc(SCc3nc4ccccc4[nH]3)n2Cc2ccco2)nc1 19.8 µM
O=c1[nH]c(N2CCOCC2)cc2ccccc12 63.8 µM
COc1cccc(/C=N/NC(=O)C(=O)N2CCCCCC2)c1O 18.8 µM
O=C(N/N=C(\c1ccccc1)c1cccnc1)c1cccc(F)c1 21.7 µM
c1ccc(-c2nnc(-c3ccccn3)nc2NCc2ccccn2)cc1 < 0.5 µM
CCN(C(=O)COc1cccc2cccnc12)C1CCS(=O)(=O)C1 (configuration not stated) 45.1 µM
Oc1ccc(CNC2Cc3ccccc3C2)c2cccnc12 0.63 µM
COc1ccc(/C=N/Nc2nncn2N)cc1Br 25.1 µM
CCSc1nnc(NC(=O)c2ccccn2)s1 3.61 µM
Cc1oc(C(=O)O)cc1COc1cccc2cccnc12 36.6 µM
C/C(=N\NC(=O)c1cccc2ccccc12)c1ccccn1 3.15 µM
O=C(CC(NCc1ccccn1)C(=O)O)Nc1ccccc1Cl (configuration not stated) 0.638 µM
O=C(COC(=O)c1cccs1)Nc1nnc(-c2ccccc2)o1 14.1 µM
CC(Oc1ccc(F)cc1)C(=O)Nc1nc(-c2ccccn2)cs1 (configuration not stated) 8.7 µM
CCCCCOc1ccc(NC(=O)CSc2cccc3cccnc23)cc1 9.17 µM
Cc1cccc(C(=O)Nc2nnc(-c3ccco3)o2)c1 5.86 µM
O=C(CSc1ccc(-c2ccccn2)nn1)NCc1ccc(F)cc1 6.65 µM
COc1ccc(NC(=O)CSc2n[nH]c(-c3ccccn3)n2)cc1 0.963 µM
Cc1cc(=O)[nH]c(-n2[nH]c3c(c2=O)CCCC3)n1 39.3 µM
O=C(COc1ccccc1)Nc1nnc(-c2ccccc2)o1 16.5 µM
c1ccc(-c2ccc(SCc3cccnc3)nn2)nc1 1.81 µM
Cc1cc(=O)[nH]c(-n2ncc(C#N)c2N)n1 59.7 µM
Cc1cccc(C(=O)Nc2nnc(-c3cccnc3)o2)c1 21.7 µM
CN(C)CCCNc1cc(O)c2ncccc2c1 0.583 µM
O=C(Cn1cnc([N+](=O)[O-])n1)N/N=C/c1ccc(O)cc1O 4.97 µM
CCCOc1ccc(/C=N/Nc2cc(N3CCOCC3)ncn2)c(O)c1 8 µM
O=C(O)C1Nc2c(O)cc(Cl)c([N+](=O)[O-])c2C2C=CCC12 (configuration not stated) 28.1 µM
CC(C)(C)c1ccc(OCCNC(=O)c2ncn[nH]2)cc1 15.8 µM
CO[C@@H]1CN(C)C(=O)c2ccc(NC(=O)c3ccccn3)cc2OC[C@@H](C)N(C(=O)C2CC2)C[C@H]1C 13.1 µM
CN(Cc1ccccc1)CC(O)COc1ccc(CNCc2nccn2C)cc1 (configuration not stated) 47.9 µM
O=C(COc1ccc([N+](=O)[O-])cc1)Nc1nc(-c2ccccn2)cs1 6.57 µM
Nn1c(SCC(=O)Nc2ccc3c(c2)OCCO3)nnc1-c1ccccn1 18.6 µM
COc1ccc(NC(=O)CSc2nnc(-c3ccccn3)n2N)cc1 13.2 µM
Oc1cccc2c(-c3nn[nH]n3)ccnc12 2.14 µM
OCCCNc1nc(-c2ccccn2)nnc1-c1ccccc1 < 0.5 µM
O=C(N[C@@H]1CC[C@H](CCn2cc(-c3ccccn3)nn2)O[C@H]1CO)c1ccc(F)cc1 14.3 µM
C[C@]12CC[C@H](O)CC1=CCC1C2CC[C@@]2(C)C1CC[C@@H]2NC(=O)[C@@H](N)Cc1cnc[nH]1 (some centres not stated) 28.3 µM
O=C(O)c1cn[nH]c1-n1cnnn1 40.6 µM
COC(=O)c1ccccc1-c1ccc(C(c2c(C)[nH][nH]c2=O)c2c(C)[nH][nH]c2=O)o1 15.7 µM
CCN(CC)S(=O)(=O)c1cccc(C(=O)N/N=C/c2ccc(O)c(O)c2O)c1 4.5 µM
c1ccc(-c2ccc(CNc3nc(-c4ccccn4)nnc3-c3ccccc3)cc2)cc1 1.6 µM
Cc1ccc(C)c(S(=O)(=O)N2CCN(Cc3ccc(O)c4ncccc34)CC2)c1 5.27 µM
N#CC1=C(N)Oc2c(ccc3cccnc23)C1c1ccccc1 (configuration not stated) 17.7 µM
O=C(CN1C(=O)CCC1=O)Nc1nc(-c2ccccn2)cs1 4.39 µM
O=C(CSc1ccc2nnc(-c3ccccn3)n2n1)Nc1ccc2c(c1)OCO2 46.5 µM
O=C(CSc1ccc2nnc(-c3ccccn3)n2n1)NCC1CCCO1 (configuration not stated) 49.7 µM
O=C(N/N=C/C=C/c1ccco1)c1cnccn1 55.4 µM
O=C(Cc1ccccc1)Nc1nnc(-c2ccco2)o1 56.9 µM
Oc1ccc(Br)cc1/C=N/Nc1ccccn1 3.27 µM
Cc1ccc(S(=O)(=O)n2oc(=O)c(C3CCCCC3)c2N)cc1 16 µM
COc1ccc(O)c(/C=N\NC(=O)CCn2nnc3ccccc32)c1 33.4 µM
COc1ccccc1N1CCN(Cc2ccc(O)c3ncccc23)CC1 0.669 µM and 2.18 µM
O=C(NCCCn1ccnc1)C(=O)NCC1OCCN1S(=O)(=O)c1ccc2c(c1)OCCO2 (configuration not stated) 13.2 µM
O=C(CSc1nnc(-c2ccccn2)o1)Nc1ccccc1F 13 µM
Clc1cccc(CNc2nc(-c3ccccn3)nnc2-c2ccccc2)c1 1.05 µM
COc1ccc(Br)cc1CNc1ccc(O)cc1 37.6 µM
